Laboratory results published in US20120034193A1, “TREATMENT OF NEUROTROPHIC FACTOR MEDIATED DISORDERS” (priority 2009, published 2012).

What was measured:
Experiment in all cases: Binding assay
Conditions in all cases: smilagenin 1 μM
[1] = target: 5-Hydroxytryptamine, 5-HT2C (Homo sapiens, UniProt P28335)
Method: (§1) The receptor binding was investigated using the following method: Sarsasapogenin was incubated with tissue or cell homogenate that expressed the receptor of interest and a known concentration a radiolabelled compound with affinity for the receptor of interest. After the incubation period the non-bound radiolabelled compound was removed and the amount of specific binding was quantified. The amount of specific binding in the presence and absence of sarsasapogenin were compared and the percent inhibition of the binding of the radiolabelled compound by sarsasapogenin was calculated. The source of the receptor, the incubation conditions, the radiolabelled compound used varied depending on each specific assay.
(§2) Using the same methods as described above, the binding of smilagenin (1 μM) to the receptors listed in Table 2 below, and the effect of smilagenin on the activity of the enzymes listed in Table 2 below, were investigated.

[2] = target: 5-Hydroxytryptamine, 5-HT6 (Homo sapiens, UniProt P50406)
Method: as §1, §2

APJ = APJ (Homo sapiens, UniProt P35414)
APJ, sequence (P35414 whole entry): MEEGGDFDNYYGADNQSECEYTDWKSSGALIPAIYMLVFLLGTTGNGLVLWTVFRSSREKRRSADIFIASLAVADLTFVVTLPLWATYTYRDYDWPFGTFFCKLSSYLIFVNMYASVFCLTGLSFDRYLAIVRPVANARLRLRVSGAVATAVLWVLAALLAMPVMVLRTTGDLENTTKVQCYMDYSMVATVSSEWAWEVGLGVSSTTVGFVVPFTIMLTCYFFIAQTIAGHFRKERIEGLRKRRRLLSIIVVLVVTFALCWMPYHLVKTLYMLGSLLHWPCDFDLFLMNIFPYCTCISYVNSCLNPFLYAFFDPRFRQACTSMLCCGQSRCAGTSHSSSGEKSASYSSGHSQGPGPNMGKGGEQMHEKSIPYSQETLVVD
Method: as §1, §2

Adensonine A1 = Adensonine A1 (Homo sapiens, UniProt P30542)
Method: as §1, §2

Adensonine A2A = Adensonine A2A (Homo sapiens, UniProt P29274)
Method: as §1, §2

Adrenergic α2C = Adrenergic α2C (Homo sapiens, UniProt P18825)
Method: as §1, §2

Aldosterone = Aldosterone (Rattus norvegicus, UniProt P22199)
Aldosterone, sequence (P22199 whole entry): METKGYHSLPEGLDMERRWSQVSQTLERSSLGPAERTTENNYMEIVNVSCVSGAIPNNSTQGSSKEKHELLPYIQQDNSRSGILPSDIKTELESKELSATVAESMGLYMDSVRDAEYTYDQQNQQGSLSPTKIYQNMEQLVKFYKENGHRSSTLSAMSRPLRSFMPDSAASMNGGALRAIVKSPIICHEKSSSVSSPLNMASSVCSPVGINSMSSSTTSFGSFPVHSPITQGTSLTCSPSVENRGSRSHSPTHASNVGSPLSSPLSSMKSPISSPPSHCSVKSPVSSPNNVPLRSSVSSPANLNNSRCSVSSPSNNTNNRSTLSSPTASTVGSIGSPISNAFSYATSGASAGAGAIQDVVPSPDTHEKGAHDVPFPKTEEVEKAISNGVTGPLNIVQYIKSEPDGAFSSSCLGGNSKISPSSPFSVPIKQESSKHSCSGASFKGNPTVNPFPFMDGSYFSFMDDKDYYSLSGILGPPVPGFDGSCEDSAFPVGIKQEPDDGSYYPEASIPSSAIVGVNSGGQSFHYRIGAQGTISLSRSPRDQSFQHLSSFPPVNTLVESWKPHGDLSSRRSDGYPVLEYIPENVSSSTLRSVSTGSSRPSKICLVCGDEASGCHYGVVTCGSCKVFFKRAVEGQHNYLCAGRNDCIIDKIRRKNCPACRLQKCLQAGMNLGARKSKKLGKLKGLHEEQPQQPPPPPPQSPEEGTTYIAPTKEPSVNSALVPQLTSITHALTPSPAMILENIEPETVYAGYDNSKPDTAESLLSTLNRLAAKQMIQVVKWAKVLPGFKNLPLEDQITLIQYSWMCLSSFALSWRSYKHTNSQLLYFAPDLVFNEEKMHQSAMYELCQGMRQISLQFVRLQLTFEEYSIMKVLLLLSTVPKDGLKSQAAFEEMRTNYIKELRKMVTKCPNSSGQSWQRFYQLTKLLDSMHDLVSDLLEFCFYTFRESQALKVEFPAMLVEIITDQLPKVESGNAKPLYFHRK
Method: as §1, §2

Angiotensin AT1 = Angiotensin AT1 (Homo sapiens, UniProt P30556)
Method: as §1, §2

Bombesin BB3 = Bombesin BB3 (Homo sapiens, UniProt P32247)
Method: as §1, §2

[3] = target: Cholecystokinin CCK1 (CCKA) (Homo sapiens, UniProt P32238)
Method: as §1, §2

[4] = target: Cholecystokinin CCK2 (CCKB) (Homo sapiens, UniProt P32239)
Method: as §1, §2

Colchicine = tested on: Colchicine
Method: as §1, §2

Dopamine D2S = Dopamine D2S (Homo sapiens, UniProt P14416)
Method: as §1, §2

Dopamine D3 = Dopamine D3 (Homo sapiens, UniProt P35462)
Method: as §1, §2

[5] = target: T1, G Protein-Coupled Receptor GPR 103 (Homo sapiens, UniProt Q96P65)
T1 construct: host or cells: tissue or cell homogenate (not specified)
Method: as §1, §2

Histamine H2 = target: T2, Histamine H2 (Homo sapiens, UniProt P25021)
T2 construct: host or cells: tissue or cell homogenate (not specified)
T2 sequence (P25021 whole entry): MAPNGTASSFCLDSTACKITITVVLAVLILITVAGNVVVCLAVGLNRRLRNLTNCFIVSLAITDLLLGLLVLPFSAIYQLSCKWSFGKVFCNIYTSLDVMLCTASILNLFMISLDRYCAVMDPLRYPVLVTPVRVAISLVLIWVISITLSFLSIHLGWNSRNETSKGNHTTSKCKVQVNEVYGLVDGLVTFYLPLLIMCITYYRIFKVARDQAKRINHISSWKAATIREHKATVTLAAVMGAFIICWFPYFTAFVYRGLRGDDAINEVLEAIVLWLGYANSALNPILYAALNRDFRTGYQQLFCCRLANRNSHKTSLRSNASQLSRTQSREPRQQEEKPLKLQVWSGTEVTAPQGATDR
Method: as §1, §2

Leptin = Leptin (Mus musculus, UniProt P48356)
Method: as §1, §2

[6] = target: Leukotriene, Cysteinyl CysLT2 (Homo sapiens, UniProt Q9NS75)
Method: as §1, §2

Melanocortin MC3 = Melanocortin MC3 (Homo sapiens, UniProt P41968)
Method: as §1, §2

Motilin = Motilin (Homo sapiens, UniProt O43193)
Motilin, sequence (O43193 whole entry): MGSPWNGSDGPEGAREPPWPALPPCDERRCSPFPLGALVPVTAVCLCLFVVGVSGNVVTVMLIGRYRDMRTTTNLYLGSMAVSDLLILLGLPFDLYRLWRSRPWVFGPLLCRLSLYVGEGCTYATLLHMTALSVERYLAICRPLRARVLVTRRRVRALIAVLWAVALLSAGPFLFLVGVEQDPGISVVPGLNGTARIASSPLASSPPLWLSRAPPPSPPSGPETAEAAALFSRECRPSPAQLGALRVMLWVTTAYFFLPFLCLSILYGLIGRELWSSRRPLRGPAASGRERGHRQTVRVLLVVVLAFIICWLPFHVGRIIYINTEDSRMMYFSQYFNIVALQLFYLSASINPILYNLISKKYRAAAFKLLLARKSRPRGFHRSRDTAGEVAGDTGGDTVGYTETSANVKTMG
Method: as §1, §2

Muscarinic M2 = target: T3, Muscarinic M2 (Homo sapiens, UniProt P08172)
T3 construct: host or cells: tissue or cell homogenate, not specified
T3 sequence (P08172 whole entry): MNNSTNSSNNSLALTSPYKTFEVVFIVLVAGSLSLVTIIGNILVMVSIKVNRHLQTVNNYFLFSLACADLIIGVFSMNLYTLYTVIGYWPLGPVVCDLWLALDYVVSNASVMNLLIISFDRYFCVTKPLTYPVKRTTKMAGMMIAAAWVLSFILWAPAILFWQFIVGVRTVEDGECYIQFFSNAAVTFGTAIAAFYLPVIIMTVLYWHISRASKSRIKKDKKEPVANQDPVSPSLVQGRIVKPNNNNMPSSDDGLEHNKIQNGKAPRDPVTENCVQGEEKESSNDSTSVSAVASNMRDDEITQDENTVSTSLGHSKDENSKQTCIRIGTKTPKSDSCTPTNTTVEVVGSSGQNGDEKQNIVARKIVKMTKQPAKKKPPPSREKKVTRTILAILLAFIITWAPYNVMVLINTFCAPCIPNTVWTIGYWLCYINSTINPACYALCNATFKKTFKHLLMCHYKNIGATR
Method: as §1, §2

Muscarinic M4 = target: T4, Muscarinic M4 (Homo sapiens, UniProt P08173)
T4 construct: host or cells: tissue or cell homogenate, not specified
Method: as §1, §2

Neuropeptide Y Y2 = Neuropeptide Y Y2 (Homo sapiens, UniProt P49146)
Method: as §1, §2

Oestrogen (Erβ) = target: T5, Oestrogen (Erβ) (Homo sapiens, UniProt Q92731)
T5 construct: host or cells: tissue or cell homogenate (not specified)
Method: as §1, §2

Orphanin ORL1 = Orphanin ORL1 (Homo sapiens, UniProt P41146)
Method: as §1, §2

Potassium Channel HERG = Potassium Channel HERG (Homo sapiens, UniProt Q12809)
Potassium Channel HERG, sequence (Q12809 whole entry): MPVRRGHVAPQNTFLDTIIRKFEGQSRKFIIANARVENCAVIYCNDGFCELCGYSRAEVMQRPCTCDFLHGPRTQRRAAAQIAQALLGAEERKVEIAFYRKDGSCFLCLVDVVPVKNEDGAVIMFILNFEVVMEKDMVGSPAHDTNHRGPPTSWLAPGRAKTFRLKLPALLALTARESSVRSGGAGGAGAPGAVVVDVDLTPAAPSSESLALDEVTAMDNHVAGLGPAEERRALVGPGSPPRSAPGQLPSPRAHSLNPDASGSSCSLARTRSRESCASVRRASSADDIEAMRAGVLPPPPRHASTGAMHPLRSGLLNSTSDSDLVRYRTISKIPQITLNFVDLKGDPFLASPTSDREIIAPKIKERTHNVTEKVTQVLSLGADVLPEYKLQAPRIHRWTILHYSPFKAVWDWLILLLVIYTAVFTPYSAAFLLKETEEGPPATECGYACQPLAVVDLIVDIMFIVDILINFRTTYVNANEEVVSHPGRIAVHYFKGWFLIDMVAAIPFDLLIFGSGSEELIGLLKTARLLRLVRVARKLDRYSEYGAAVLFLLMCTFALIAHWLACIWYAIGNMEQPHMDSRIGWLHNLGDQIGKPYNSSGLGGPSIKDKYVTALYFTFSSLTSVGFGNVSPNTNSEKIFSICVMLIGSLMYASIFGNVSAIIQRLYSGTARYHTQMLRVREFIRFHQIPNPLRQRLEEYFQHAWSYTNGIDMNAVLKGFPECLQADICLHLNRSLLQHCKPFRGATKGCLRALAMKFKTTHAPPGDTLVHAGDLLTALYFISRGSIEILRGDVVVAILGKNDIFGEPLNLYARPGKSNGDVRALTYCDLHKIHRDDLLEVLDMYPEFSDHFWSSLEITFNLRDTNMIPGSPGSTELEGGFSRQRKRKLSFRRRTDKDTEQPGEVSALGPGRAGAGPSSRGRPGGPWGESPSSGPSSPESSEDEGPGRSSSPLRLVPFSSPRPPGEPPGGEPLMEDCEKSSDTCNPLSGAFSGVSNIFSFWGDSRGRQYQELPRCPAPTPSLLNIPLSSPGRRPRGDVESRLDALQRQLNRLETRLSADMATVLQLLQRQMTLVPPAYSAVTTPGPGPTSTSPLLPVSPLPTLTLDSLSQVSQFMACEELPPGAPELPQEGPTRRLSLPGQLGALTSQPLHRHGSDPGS
Method: as §1, §2

Prostanoid DP = Prostanoid DP (Homo sapiens, UniProt Q13258)
Method: as §1, §2

Prostanoid EP2 = Prostanoid EP2 (Homo sapiens, UniProt P43116)
Prostanoid EP2, sequence (P43116 whole entry): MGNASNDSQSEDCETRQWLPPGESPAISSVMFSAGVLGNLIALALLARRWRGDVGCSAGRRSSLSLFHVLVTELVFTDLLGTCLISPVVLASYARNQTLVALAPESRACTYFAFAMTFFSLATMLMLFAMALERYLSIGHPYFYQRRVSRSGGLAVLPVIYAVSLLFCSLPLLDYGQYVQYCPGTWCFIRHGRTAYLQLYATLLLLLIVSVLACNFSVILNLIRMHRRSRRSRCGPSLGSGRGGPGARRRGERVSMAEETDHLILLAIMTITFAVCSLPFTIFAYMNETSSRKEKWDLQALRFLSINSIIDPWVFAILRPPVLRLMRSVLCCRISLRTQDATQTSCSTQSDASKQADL
Method: as §1, §2

Sigma σ2 = Sigma σ2 (Rattus norvegicus, UniProt Q5U3Y7)
Method: as §1, §2

Somatostatin sst4 = Somatostatin sst4 (Homo sapiens, UniProt P31391)
Method: as §1, §2

Somatostatin sst5 = Somatostatin sst5 (Homo sapiens, UniProt P35346)
Method: as §1, §2

Tachykinin NK2 = Tachykinin NK2 (Homo sapiens, UniProt P21452)
Method: as §1, §2

Tachykinin NK3 = Tachykinin NK3 (Homo sapiens, UniProt P29371)
Tachykinin NK3, sequence (P29371 whole entry): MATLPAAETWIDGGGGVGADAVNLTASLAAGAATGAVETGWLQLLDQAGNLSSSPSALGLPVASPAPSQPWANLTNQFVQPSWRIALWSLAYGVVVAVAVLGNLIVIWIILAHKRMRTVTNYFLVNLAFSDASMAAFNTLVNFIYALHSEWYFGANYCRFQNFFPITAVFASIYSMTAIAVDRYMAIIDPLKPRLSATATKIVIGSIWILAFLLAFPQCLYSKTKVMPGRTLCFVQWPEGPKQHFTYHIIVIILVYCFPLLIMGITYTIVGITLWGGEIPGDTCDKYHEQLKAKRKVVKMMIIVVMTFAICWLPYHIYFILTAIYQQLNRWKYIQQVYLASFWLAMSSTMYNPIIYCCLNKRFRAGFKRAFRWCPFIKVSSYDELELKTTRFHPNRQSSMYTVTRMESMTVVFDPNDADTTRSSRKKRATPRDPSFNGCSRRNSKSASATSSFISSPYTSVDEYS
Method: as §1, §2

[7] = target: Thyrotropin Releasing Hormone (TRH) (Rattus norvegicus, UniProt Q01717)
Thyrotropin Releasing Hormone (TRH), sequence (Q01717 whole entry): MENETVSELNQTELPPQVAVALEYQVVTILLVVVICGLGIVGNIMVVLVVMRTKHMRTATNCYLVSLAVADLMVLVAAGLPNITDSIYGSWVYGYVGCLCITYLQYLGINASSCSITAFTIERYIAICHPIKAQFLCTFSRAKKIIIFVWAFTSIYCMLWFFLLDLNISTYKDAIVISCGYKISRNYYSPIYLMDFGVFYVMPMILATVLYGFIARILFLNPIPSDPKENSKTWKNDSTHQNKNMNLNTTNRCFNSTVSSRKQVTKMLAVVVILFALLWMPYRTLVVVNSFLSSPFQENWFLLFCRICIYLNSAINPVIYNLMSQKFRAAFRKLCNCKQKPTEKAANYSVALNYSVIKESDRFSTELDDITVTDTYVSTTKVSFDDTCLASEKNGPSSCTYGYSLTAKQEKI
Method: as §1, §2

[8] = target: T6, Transporter, Norepinephrine (NET) (Homo sapiens, UniProt P23975)
T6 construct: host or cells: tissue or cell homogenate, not specified
Method: as §1, §2

Urotensin II = target: T7, Urotensin II (Homo sapiens, UniProt Q9UKP6)
T7 construct: host or cells: tissue or cell homogenate, not specified
Method: as §1, §2

Vasopressin V2 = target: T8, Vasopressin V2 (Homo sapiens, UniProt P30518)
T8 construct: host or cells: tissue or cell homogenate, not specified
Method: as §1, §2

C[C@@H]1CC[C@@]2(OC1)O[C@H]1C[C@H]3[C@@H]4CC[C@@H]5C[C@@H](O)CC[C@]5(C)[C@H]4CC[C@]3(C)[C@H]1[C@@H]2C [Smilagenin, smilagenin]
Effect (%) [1]: NS (NS = No significant response. Significance was taken as ≧30% stimulation or inhibition) | Effect (%) [2]: NS (NS = No significant response. Significance was taken as ≧30% stimulation or inhibition) | Effect (%) (APJ): NS (NS = No significant response. Significance was taken as ≧30% stimulation or inhibition) | Effect (%) (Adensonine A1): NS (NS = No significant response. Significance was taken as ≧30% stimulation or inhibition) | Effect (%) (Adensonine A2A): NS (NS = No significant response. Significance was taken as ≧30% stimulation or inhibition) | Effect (%) (Adrenergic α2C): NS (NS = No significant response. Significance was taken as ≧30% stimulation or inhibition) | Effect (%) (Aldosterone): NS (NS = No significant response. Significance was taken as ≧30% stimulation or inhibition) | Effect (%) (Angiotensin AT1): NS (NS = No significant response. Significance was taken as ≧30% stimulation or inhibition) | Effect (%) (Bombesin BB3): NS (NS = No significant response. Significance was taken as ≧30% stimulation or inhibition) | Effect (%) [3]: NS (NS = No significant response. Significance was taken as ≧30% stimulation or inhibition) | Effect (%) [4]: NS (NS = No significant response. Significance was taken as ≧30% stimulation or inhibition) | Effect (%) (Colchicine): NS (NS = No significant response. Significance was taken as ≧30% stimulation or inhibition) | Effect (%) (Dopamine D2S): NS (NS = No significant response. Significance was taken as ≧30% stimulation or inhibition) | Effect (%) (Dopamine D3): NS (NS = No significant response. Significance was taken as ≧30% stimulation or inhibition) | Effect (%) [5]: NS (NS = No significant response. Significance was taken as ≧30% stimulation or inhibition) | Effect (%) (Histamine H2): NS (NS = No significant response. Significance was taken as ≧30% stimulation or inhibition) | Effect (%) (Leptin): NS (NS = No significant response. Significance was taken as ≧30% stimulation or inhibition) | Effect (%) [6]: NS (NS = No significant response. Significance was taken as ≧30% stimulation or inhibition) | Effect (%) (Melanocortin MC3): NS (NS = No significant response. Significance was taken as ≧30% stimulation or inhibition) | Effect (%) (Motilin): NS (NS = No significant response. Significance was taken as ≧30% stimulation or inhibition) | Effect (%) (Muscarinic M2): NS (NS = No significant response. Significance was taken as ≧30% stimulation or inhibition) | Effect (%) (Muscarinic M4): NS (NS = No significant response. Significance was taken as ≧30% stimulation or inhibition) | Effect (%) (Neuropeptide Y Y2): NS (NS = No significant response. Significance was taken as ≧30% stimulation or inhibition) | Effect (%) (Oestrogen (Erβ)): NS (NS = No significant response. Significance was taken as ≧30% stimulation or inhibition) | Effect (%) (Orphanin ORL1): NS (NS = No significant response. Significance was taken as ≧30% stimulation or inhibition) | Effect (%) (Potassium Channel HERG): NS (NS = No significant response. Significance was taken as ≧30% stimulation or inhibition) | Effect (%) (Prostanoid DP): NS (NS = No significant response. Significance was taken as ≧30% stimulation or inhibition) | Effect (%) (Prostanoid EP2): NS (NS = No significant response. Significance was taken as ≧30% stimulation or inhibition) | Effect (%) (Sigma σ2): NS (NS = No significant response. Significance was taken as ≧30% stimulation or inhibition) | Effect (%) (Somatostatin sst4): NS (NS = No significant response. Significance was taken as ≧30% stimulation or inhibition) | Effect (%) (Somatostatin sst5): NS (NS = No significant response. Significance was taken as ≧30% stimulation or inhibition) | Effect (%) (Tachykinin NK2): NS (NS = No significant response. Significance was taken as ≧30% stimulation or inhibition) | Effect (%) (Tachykinin NK3): NS (NS = No significant response. Significance was taken as ≧30% stimulation or inhibition) | Effect (%) [7]: NS (NS = No significant response. Significance was taken as ≧30% stimulation or inhibition) | Effect (%) [8]: NS (NS = No significant response. Significance was taken as ≧30% stimulation or inhibition) | Effect (%) (Urotensin II): NS (NS = No significant response. Significance was taken as ≧30% stimulation or inhibition) | Effect (%) (Vasopressin V2): NS (NS = No significant response. Significance was taken as ≧30% stimulation or inhibition)
